Data as given in patent US8372822B2, “Polymorphs of eltrombopag and eltrombopag salts and processes for preparation thereof” (Pliva Hrvatska D.O.O., priority 2009, dated 2013).

What was measured:
Type in all cases: physicochemical
[1] = Hygroscopicity: absorption of atmospheric water, measured by TGA; details: relative humidity of 80%, 100% at room temperature, non-hygroscopic = less than 0.2% (w/w) absorption of atmospheric water by TGA
From the text: As used herein the term non-hygroscopic in relation to crystalline Eltrombopag refers to less than 0.2% (w/w) absorption of atmospheric water to the crystalline Eltrombopag in the above specified conditions, as measured by TGA.

[2] = Solubility
[3] = Thermo-dynamical stability: conversion to other solid state forms under heating, measured by XRPD; details: heating up to 200° C. at 10° C./minute, defined as less than 20%, 5%, 1%, or 0.5% conversion to any other solid state form by XRPD
Protocol: As used herein the term “thermo-dynamical stability” in relation to crystalline Eltrombopag form I refers to less than 20%, 10%, 5%, 1%, or 0.5% conversion of crystalline Eltrombopag form Ito any other solid state form of Eltrombopag under heating up to temperature of 200° C. at a heating rate of 10° C./minute, as measured by XRPD. In some embodiments, the conversion is 1%-20%, 1%-10% or 1%-5%.

CC1=NN(c2ccc(C)c(C)c2)C(=O)/C1=N\Nc1cccc(-c2cccc(C(=O)O)c2)c1O [Eltrombopag form III]
hygroscopicity ([1]; at least 10 months): non-hygroscopic

CC1=NN(c2ccc(C)c(C)c2)C(=O)/C1=N\Nc1cccc(-c2cccc(C(=O)O)c2)c1O [Eltrombopag form XVI]
hygroscopicity ([1]; at least 5 months): non-hygroscopic

CC1=NN(c2ccc(C)c(C)c2)C(=O)/C1=N\Nc1cccc(-c2cccc(C(=O)O)c2)c1O [Eltrombopag bisethanolamine form II]
solubility in water ([2]; water): highly soluble in water

CC1=NN(c2ccc(C)c(C)c2)C(=O)/C1=N\Nc1cccc(-c2cccc(C(=O)O)c2)c1O [Eltrombopag form I]
thermo-dynamical stability [3]: advantageous
solubility ([2]; medium not stated): advantageous
